Data published in US6994956B2, “Method for assaying enzyme activity” (Bayer Pharmaceuticals Corporation, priority 2003, dated 2006).

How the values were obtained:
[1] = target: farnesyl-diphosphate synthase (FPPS) (Homo sapiens, UniProt P14324); settings: FPPS (25 ng), incubated for 2 hours, conditions of FIG. 4
Experimental: Time course and protein dependence of farnesyl-diphosphate synthase (FPPS)-produced product partitioning into the organic phase. FPPS was incubated at varying concentrations and times at room temperature with 5 μM geranyl pyrophosphate (GPP) and 5 μM IPP (0.0125 μCi; [1-^14C]isopentenyl pyrophosphate) in a buffer containing 25 mM HEPES (pH 7.5), 1 mM DTT, and 1 mM MgCl2 in a total volume of 40 μL. The reaction was terminated by the addition of 10 μL of 5% phosphoric acid, followed by 50 μL Microscint™-CAT. The mix was allowed to incubate two hours prior to data acquisition. […]
A typical 384-well density reaction is partitioned with the following proportion of reagents: 40 μL enzyme assay inhibitor test mix containing FPP synthetase, substrates, test compounds, and buffer components is incubated at room temperature to generate farnesyl diphosphate. […] Enzyme activity is proportional to the radioactivity in the organic phase as determined by liquid scintillation counting (LSC). This radioactivity corresponds to products of acid treatment of the enzyme reaction, farnesol and nerolidol, as determined by LSC of authentic [1,2-^14C]trans, trans farnesol. […] The theoretical signal to background of the assay is established by comparing CPMs in the PPSF using equimolar amounts and equal amounts of radioactivity of radiolabeled substrate and product. […]

[2] = target: fatty acid synthase (FAS) (Homo sapiens, UniProt P49327); assay: Phase partition assay of fatty acid synthase activity; format: biochemical; settings: FAS (35 ng), incubated for 90 minutes, conditions of FIG. 1
Chain of fatty acid synthase (FAS) (P49327 whole entry, species assumed): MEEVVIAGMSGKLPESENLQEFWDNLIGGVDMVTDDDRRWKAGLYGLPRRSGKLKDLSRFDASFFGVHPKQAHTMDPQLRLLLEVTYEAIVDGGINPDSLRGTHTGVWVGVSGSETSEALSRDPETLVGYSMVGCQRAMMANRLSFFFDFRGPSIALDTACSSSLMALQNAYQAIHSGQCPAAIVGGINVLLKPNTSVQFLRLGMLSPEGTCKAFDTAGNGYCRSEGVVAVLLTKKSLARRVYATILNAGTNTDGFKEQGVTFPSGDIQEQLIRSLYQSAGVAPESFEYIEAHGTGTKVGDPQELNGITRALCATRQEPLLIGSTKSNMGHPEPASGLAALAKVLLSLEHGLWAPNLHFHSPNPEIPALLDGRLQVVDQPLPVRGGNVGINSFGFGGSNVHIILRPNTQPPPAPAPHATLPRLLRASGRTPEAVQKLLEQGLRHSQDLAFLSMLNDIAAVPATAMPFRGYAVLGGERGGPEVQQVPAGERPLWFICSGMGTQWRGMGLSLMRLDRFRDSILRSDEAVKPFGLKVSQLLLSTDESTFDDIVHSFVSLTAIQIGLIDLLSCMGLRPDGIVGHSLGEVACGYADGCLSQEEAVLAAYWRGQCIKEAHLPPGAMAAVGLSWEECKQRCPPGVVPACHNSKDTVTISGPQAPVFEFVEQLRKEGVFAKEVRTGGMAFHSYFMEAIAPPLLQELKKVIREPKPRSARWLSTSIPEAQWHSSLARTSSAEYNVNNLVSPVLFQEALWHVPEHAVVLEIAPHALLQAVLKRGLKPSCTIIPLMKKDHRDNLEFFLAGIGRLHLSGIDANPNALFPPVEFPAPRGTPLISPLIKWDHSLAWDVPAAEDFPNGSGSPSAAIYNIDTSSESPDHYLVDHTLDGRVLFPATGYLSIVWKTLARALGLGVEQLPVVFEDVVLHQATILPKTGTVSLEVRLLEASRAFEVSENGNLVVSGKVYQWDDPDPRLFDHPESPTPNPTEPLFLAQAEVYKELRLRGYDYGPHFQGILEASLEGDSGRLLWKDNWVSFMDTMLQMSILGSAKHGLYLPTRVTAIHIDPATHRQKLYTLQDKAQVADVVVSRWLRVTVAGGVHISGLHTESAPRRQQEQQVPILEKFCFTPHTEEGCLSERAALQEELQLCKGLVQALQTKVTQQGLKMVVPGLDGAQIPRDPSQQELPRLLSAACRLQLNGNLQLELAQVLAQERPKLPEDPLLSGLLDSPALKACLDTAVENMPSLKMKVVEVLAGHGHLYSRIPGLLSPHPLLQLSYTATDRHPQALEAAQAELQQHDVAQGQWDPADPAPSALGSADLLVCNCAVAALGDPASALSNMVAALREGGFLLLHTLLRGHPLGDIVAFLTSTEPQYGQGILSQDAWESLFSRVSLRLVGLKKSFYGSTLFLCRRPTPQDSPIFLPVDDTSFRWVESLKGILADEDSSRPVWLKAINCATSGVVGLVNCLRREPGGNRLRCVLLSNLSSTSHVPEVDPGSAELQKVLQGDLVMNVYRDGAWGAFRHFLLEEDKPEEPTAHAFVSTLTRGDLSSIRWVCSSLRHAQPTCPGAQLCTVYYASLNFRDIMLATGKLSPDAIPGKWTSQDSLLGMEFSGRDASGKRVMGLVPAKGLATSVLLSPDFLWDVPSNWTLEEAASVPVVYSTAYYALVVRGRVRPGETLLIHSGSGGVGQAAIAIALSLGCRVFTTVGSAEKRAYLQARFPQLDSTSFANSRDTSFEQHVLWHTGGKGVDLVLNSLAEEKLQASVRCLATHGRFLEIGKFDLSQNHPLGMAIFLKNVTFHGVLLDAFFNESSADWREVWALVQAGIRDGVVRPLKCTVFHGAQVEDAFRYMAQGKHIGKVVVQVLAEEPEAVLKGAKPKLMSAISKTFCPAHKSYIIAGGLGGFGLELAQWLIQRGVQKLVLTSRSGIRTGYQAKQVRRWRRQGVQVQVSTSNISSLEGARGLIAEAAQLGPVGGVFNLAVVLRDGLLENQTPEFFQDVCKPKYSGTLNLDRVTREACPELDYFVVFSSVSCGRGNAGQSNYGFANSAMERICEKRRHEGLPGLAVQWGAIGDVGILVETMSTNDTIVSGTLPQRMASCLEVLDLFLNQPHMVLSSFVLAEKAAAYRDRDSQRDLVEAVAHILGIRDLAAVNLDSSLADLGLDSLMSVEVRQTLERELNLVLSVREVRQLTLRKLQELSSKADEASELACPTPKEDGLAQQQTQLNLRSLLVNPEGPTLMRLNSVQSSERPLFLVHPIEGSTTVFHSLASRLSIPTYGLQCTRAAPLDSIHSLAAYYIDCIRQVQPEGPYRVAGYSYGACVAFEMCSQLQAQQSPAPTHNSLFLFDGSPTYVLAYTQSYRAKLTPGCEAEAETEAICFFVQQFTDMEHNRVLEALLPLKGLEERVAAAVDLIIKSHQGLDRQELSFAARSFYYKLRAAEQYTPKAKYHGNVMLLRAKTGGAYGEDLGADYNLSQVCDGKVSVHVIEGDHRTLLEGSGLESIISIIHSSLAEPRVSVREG
Experimental: FAS was incubated at varying concentrations and times at room temperature with 400 μM NADPH, 100 μM acetyl-CoA, and 20 μM malonyl-CoA (0.02 μCi [malonyl-2-^14C]-CoA) in buffer containing 50 mM MOPS (pH 6.8), 5 mM DTT, 1 mM EDTA, and 0.03% BSA in a total volume of 100 μL. The reaction was terminated by the addition of 10 μL of 10 N acetic acid, followed by the addition of 150 μL Microscint™-CAT. The mix was allowed to incubate overnight prior to data acquisition.
Inhibition of FAS by cerulenin. FAS (35 ng) was incubated for 90 minutes with cerulenin under conditions described in FIG. 1.
This method of the present invention permits radiometric detection of FAS activity via a gain of signal assay using [2-^14C]malonyl CoA as the radiolabel and partitioning of the radioactive products (^14C-labeled oleic acid and palmitic acid) into the PPSF (Microscint™-E), following acidification and addition of PPSF to the reaction mixture.
A typical 96-well density reaction is partitioned in the following manner: an enzyme assay inhibitor test mix (100 μL) containing enzyme, substrates, test compounds, and buffer components is incubated at room temperature to generate the fatty acid products. […] Enzyme activity is proportional to the radioactivity in the organic phase as determined by liquid scintillation counting. […]

Chain of farnesyl-diphosphate synthase (FPPS) (P14324 whole entry): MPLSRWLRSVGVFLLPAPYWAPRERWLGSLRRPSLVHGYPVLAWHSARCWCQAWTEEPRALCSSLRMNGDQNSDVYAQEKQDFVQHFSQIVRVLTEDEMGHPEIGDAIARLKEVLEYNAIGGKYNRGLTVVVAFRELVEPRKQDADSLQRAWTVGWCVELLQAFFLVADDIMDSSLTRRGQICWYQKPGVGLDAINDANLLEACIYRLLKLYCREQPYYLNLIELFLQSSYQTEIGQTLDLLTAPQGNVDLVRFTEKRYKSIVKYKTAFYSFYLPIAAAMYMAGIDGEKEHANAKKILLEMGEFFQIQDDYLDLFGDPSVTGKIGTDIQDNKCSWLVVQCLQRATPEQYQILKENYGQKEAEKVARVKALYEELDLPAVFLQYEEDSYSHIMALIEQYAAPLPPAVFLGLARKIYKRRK

Inhibition of FPPS [1] | Inhibition of FAS [2] | Structure (SMILES)
Inhibition | – | NCCCC(O)(P(=O)(O)O)P(=O)(O)O [alendronate]
– | Inhibition | C/C=C/C/C=C/CCC(=O)[C@H]1O[C@H]1C(N)=O [cerulenin]
